“And” between values parts separate entries of the source, which are not always exact repeats. Equal entries are not always repeated.
How the values were obtained:
Assay type in all cases: in vitro ADME
CYP3A4 = CYP3A4 (Homo sapiens, UniProt P08684); test: Effect of specific inhibitor ketoconazole on CK metabolism in HLMs; design: tissue Cypex Ltd. (U.K.); host or cells: pooled human liver microsomes; conditions: CK 50 μM, in the presence of ketoconazole 1 μM
Procedure: (§1) The method was conducted according to our previous study with some modifications. The CYP isoform-specific probe reactions used were phenacetin O-deethylation (for CYP1A2), coumarin 7-hydroxylation (for CYP2A6), tolbutamide 4-hydroxylation (for CYP2C9), metoprolol α-hydroxylation (for CYP2D6), chlorzoxazone 6-hydroxylation (for CYP2E1),S-Mephenytoin 4-hydroxylation (for CYP2C19), and midazolam 1-hydroxylation (for CYP3A4). The kinetic study of CK was conducted with HLMs. A 0.2 mL incubation mixture that consisted of CK (as a substrate), the HLMs (0.5 mg/mL) or CYP isoforms (10 pmol), and 0.1 M sodium phosphate buffer (pH 7.4) was pre-warmed for 5 min at 37°C. The reaction was initiated by the addition of 1 mg/mL triphosphopyridine nucleotide (NADPH). […]
(§2) To screen the specific CYP isoform responsible for the CK metabolism, we determined the inhibitory effect of specific inhibitors on the metabolism of CK in the HLMs as described in detail previously. […] The inhibitory effects of the above specific inhibitors on the metabolic clearance rate of CK were evaluated separately to screen the CYP isoforms responsible for the CK metabolism. The relative activity of the CYP isoforms was calculated by dividing the peak area of CK when incubated with the inhibitor by that of CK from the negative controls. […]

CYP2C9 [1] = target: T1, CYP2C9 (Homo sapiens, UniProt P11712); test: Inhibition of CYP2C9 (tolbutamide 4-hydroxylation) by CK in HLMs; design: tissue Cypex Ltd. (U.K.); host or cells: pooled human liver microsomes
T1 sequence (P11712 whole entry, canonical isoform): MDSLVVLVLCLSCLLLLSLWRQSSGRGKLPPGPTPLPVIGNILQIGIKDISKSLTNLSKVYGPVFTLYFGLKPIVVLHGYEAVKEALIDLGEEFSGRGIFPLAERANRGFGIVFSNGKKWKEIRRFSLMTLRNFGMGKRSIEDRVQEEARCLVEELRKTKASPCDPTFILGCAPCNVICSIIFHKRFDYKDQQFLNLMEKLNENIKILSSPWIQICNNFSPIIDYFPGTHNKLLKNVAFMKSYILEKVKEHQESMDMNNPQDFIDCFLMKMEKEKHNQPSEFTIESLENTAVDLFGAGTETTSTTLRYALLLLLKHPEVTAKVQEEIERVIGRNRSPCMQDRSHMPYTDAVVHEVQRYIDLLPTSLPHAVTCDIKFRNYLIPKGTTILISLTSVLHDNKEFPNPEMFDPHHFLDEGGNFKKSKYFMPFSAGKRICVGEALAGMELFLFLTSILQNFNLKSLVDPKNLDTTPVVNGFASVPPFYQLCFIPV
Procedure: The method was conducted according to our previous study with some modifications. The CYP isoform-specific probe reactions used were phenacetin O-deethylation (for CYP1A2), coumarin 7-hydroxylation (for CYP2A6), tolbutamide 4-hydroxylation (for CYP2C9), metoprolol α-hydroxylation (for CYP2D6), chlorzoxazone 6-hydroxylation (for CYP2E1),S-Mephenytoin 4-hydroxylation (for CYP2C19), and midazolam 1-hydroxylation (for CYP3A4). The kinetic study of CK was conducted with HLMs. A 0.2 mL incubation mixture that consisted of CK (as a substrate), the HLMs (0.5 mg/mL) or CYP isoforms (10 pmol), and 0.1 M sodium phosphate buffer (pH 7.4) was pre-warmed for 5 min at 37°C. The reaction was initiated by the addition of 1 mg/mL triphosphopyridine nucleotide (NADPH). All the reagents were dissolved in methanol, and the final solvent concentration in all incubations (including the controls) was 1%. The final incubations were performed in a shaking water bath (37°C) for 30 min. The reactions were stopped by adding 0.2 mL ice-cold acetonitrile, which contains irbesartan (114.9 ng/mL) as the internal standard. The samples were vortexed for 5 min. After centrifugation (12000×g for 10 min), the supernatants were transferred, and aliquots of 20 μL were injected into the HPLC-MS/MS system for analysis.
CK (10–100 μM) and a single CYP isoform-specific substrate (with a concentration similar to its corresponding Kmvalue) were used to determine the inhibitory effect of CK on specific CYP isoforms as described in detail previously. Substrates including phenacetin, coumarin, tolbutamide, metoprolol, chlorzoxazone, S-Mephenytoin, and midazolam were used at concentrations of 10, 5, 100, 7.5, 40, 100, and 5 μM, respectively. All incubation conditions were the same as mentioned above. The inhibitory effects on the CYP isoforms were investigated individually by incubating the HLMs in the absence or presence of CK. The incubation solution with the solvent that was used to dissolve CK was regarded as the negative control, and the solutions containing the specific inhibitors mentioned above were considered the positive controls.
Therefore, Dixon plots for the inhibition of CYP2C9 and CYP3A4 were determined by incubating the substrate probe at multiple concentrations with or without the test inhibitor with the HLMs and cofactors. The inhibition data obtained from the pilot experiments were used as a guide to generate the appropriate probe substrate and test inhibitor concentrations for the determination of the Ki values for each CYP isoform. The isoform-specific probe substrate concentrations used were 25–200 μM tolbutamide for CYP2C9 and 5–50 μM midazolam for CYP3A4. The CK concentrations used were 10–100 μM.
Therefore, we used S/V versus [I] plots to determine the Ki’ values for the inhibition of CYP2C9 and CYP3A4. When Ki>Ki’, the intersection was above the [I] axis in the plot of S/V against [I] and below it in the Dixon plot; the opposite was true if Ki<Ki’. In the special case where Ki = Ki’ (simple non-competitive inhibition), the intersections occurred on the [I] axis in both plots. The asymptotic cases of competitive and uncompetitive inhibition can be generated by inserting the conditions Ki’ to ∞ for competitive inhibition, or Ki to ∞ for uncompetitive inhibition.
As described in detail previously, to determine the major enzymes responsible for the CK metabolism in HLMs, the metabolic clearance rate of the incubation solution without any specific inhibitor for CK was considered as 100%. The effects of the specific inhibitors on the metabolic clearance rate of CK were evaluated with SPSS one-way analysis of variance (SPSS Inc., Chicago, IL, USA). P<0.05 was considered significant in all cases. The apparent kinetic parameters of CK (Km and Vmax) were determined by fitting the Michaelis–Menten equation using the GraphPad Prism Enzyme Kinetic 5 Demo software (GraphPad Co. Ltd, San Diego, CA, USA). […]

CYP2C9 [2] = target: T1, CYP2C9; test: Metabolic clearance rate of CK with recombinant CYP2C9 under sulfaphenazole; design: purchased Cypex Ltd. (U.K.); conditions: recombinant CYP2C9, CK 50 μM, sulfaphenazole 1 μM
Procedure: as §1, §2

[3] = CYP2C9 in HLMs, sulfaphenazole values ref 15, 16

Chain of CYP3A4 (P08684 whole entry, canonical isoform): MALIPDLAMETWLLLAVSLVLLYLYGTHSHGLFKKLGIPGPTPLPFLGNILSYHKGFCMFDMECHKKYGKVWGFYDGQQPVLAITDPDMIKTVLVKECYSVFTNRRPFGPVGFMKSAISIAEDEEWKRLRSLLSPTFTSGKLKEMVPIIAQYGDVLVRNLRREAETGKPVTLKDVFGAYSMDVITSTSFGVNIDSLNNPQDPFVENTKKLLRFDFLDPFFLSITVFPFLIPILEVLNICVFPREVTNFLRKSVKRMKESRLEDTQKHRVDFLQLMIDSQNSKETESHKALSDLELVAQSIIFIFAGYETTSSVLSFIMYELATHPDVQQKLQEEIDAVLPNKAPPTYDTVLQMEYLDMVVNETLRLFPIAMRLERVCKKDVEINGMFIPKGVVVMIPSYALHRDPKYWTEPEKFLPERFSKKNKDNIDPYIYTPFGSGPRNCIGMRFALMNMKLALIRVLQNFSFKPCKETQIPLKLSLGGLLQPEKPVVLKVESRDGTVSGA

SMILES: CC(C)=CCC[C@](C)(OC1O[C@H](CO)[C@@H](O)[C@H](O)[C@H]1O)[C@H]1CC[C@]2(C)[C@@H]1[C@H](O)C[C@@H]1[C@@]3(C)CC[C@H](O)C(C)(C)[C@@H]3CC[C@]12C (stereo partly drawn) [CK, 20-O-β-(D-glucopyranosyl)-20(S)-protopanaxadiol]
- metabolic clearance rate (MCR) of CK, of that of the control (CYP3A4): 74.6±28.1% and 74.6%
- IC50 of CK higher than that of sulfaphenazole (CYP2C9 [1]; [3]): 11-53 fold
- Ki of CK higher than that of sulfaphenazole (CYP2C9 [1]; [3]): 49 fold
- type of inhibition of CYP2C9 (CYP2C9 [1]; HLMs, Dixon and S/V versus [I] plots): mixed type
- IC50 (CYP2C9 [1]; HLMs, tolbutamide 4-hydroxylation, tolbutamide 100 μM, CK 10–100 μM): 16 µM
- Ki (CYP2C9 [1]; HLMs, tolbutamide 25–200 μM, secondary plot of Lineweaver–Burk slopes): 14.9 µM
- inhibitor potency class for CYP2C9 (CYP2C9 [1]; classified by IC50 according to Kong et al): moderate (moderate, if IC50 20–100 μg/mL or 10–50 μM)
- MCR of CK, of that of the control (CYP2C9 [2]): 22.0%
